Test results published in PMC4501006, “Preliminary Characterization and In Vivo Studies of Structurally Identical ^18F- and ^125I-Labeled Benzyloxybenzenes for PET/SPECT Imaging of β-Amyloid Plaques” (Scientific Reports, 2015).
Values joined by “and” are separate entries in the source; they are usually repeats but may differ in a detail not shown here. Equal values may be shown once.

Test: In vivo biodistribution in normal ICR mice
Conditions: i.v.
Description: Histograms of brain and intestine uptake were presented in Fig. 6 for comparison, while detailed data concerning the in vivo biodistribution in normal ICR mice were collected in Table S3 in Supplementary information. […] [^125I]7a and [^125I]12a were rapidly cleared from the normal brain, with only small amounts of radioactivity remaining at 60 min post-injection (0.55% ID/g for [^125I]7a and 0.37% ID/g for [^125I]12a). […] In addition, no significant deiodination was observed (less than 0.5% ID in the thyroid at 60 min).
As the specific activity of ^18F-labeled ligands (about 60 GBq/μmol) was slightly lower than that of corresponding no-carrier-added ^125I-labeled ligands (81 GBq/μmol), the impact of specific activity on pharmacokinetics was studied. In vivo biodistribution of radioactivity after injection of carrier-added [^125I]7a with equal specific activity to corresponding [^18F]7a (60 GBq/μmol) was conducted in normal ICR mice through the same procedure.
A structural model of an Aβ fiber (PDB ID: 2LMO) derived from solid state NMR was downloaded from the RCSB Protein Data Bank (www.rcsb.org/pdb). Geometric optimization was performed using Gaussian 09 at the B3LYP/6–31 G and 3-21G levels in the water phase. Molecular docking was performed using AutoDock4.0, and the docking results were graphed with VMD 1.9.1 software. SYBYL-X 1.1 software was used to predict the binding affinities with previously constructed 3D-QSAR models. All reagents for chemical synthesis were used as purchased without further purification. [^125I]NaI was purchased from PerkinElmer and ^18F^– was kindly provided by the Chinese PLA General Hospital. ^1H and ^13C NMR spectra were recorded on a Bruker Avance III NMR spectrometer (400 MHz for ^1H; 101 MHz for ^13C) in CDCl3 or DMSO-d6 solutions at room temperature. Mass spectra were acquired with a GCT CA127 Micronass UK instrument. X-ray crystallographic data of compound 12a were collected on a Bruker Smart APEX II diffractometer (Bruker Co., Germany) and deposited at the Cambridge Crystallographic Data Centre as supplementary publication (no. CCDC 1063679). HPLC analysis was performed on a Shimadzu SCL-20 AVP equipped with a Bioscan Flow Count 3200 NaI/PMT γ-radiation scintillation detector and a SPD-20A UV detector, λ = 254 nm. A Venusil MP C18 reverse phase column (Agela Technologies, 5 μm, 4.6 × 250 mm) was used for separations and purity determinations with a binary gradient system (acetonitrile: water = 80%: 20%) at a 1.0 mL/min flow rate. Fluorescent observation was performed on the Axio Observer Z1 inverted fluorescence microscope (Zeiss, Germany) equipped with a DAPI filter set (excitation, 405 nm). Post-mortem brain sections from an autopsy-confirmed AD subject and a control subject were acquired from the Chinese Brain Bank. Transgenic mice (APPswe/PSEN1, male) and wild-type mice (C57BL6, male) were purchased from the Institute of Laboratory Animal Science, Chinese Academy of Medical Sciences. Normal ICR mice (20–22 g, male) were used for in vivo biodistribution, dynamic PET/CT and SPECT/CT scans, and biostability experiments. All experiments on mice were performed in accordance with the guidelines approved by the animal care committee of Beijing Normal University and Xiamen University.

[1] = carrier-added, SA ≈ 60 GBq/μmol, 2 min
[2] = carrier-added, SA ≈ 60 GBq/μmol, 10 min
[3] = carrier-added, SA ≈ 60 GBq/μmol, 30 min
[4] = carrier-added, SA ≈ 60 GBq/μmol, 60 min

FCCOc1ccc(OCc2ccc([125I])cc2)cc1 [[^125I]7a]
Biodistribution of radioactivity, blood [1]: 3.30 ± 0.43 % injected dose per gram | Biodistribution of radioactivity, brain [1]: 5.39 % injected dose per gram | Biodistribution of radioactivity, heart [1]: 7.34 ± 0.69 % injected dose per gram | Biodistribution of radioactivity, intestine [1]: 4.57 ± 0.96 % injected dose per organ | Biodistribution of radioactivity, kidney [1]: 9.80 ± 1.05 % injected dose per gram | Biodistribution of radioactivity, liver [1]: 12.12 ± 2.01 % injected dose per gram | Biodistribution of radioactivity, lung [1]: 7.77 ± 0.18 % injected dose per gram | Biodistribution of radioactivity, muscle [1]: 3.37 ± 0.50 % injected dose per gram | Biodistribution of radioactivity, pancreas [1]: 6.79 ± 1.53 % injected dose per gram | Biodistribution of radioactivity, spleen [1]: 3.63 ± 0.83 % injected dose per gram | Biodistribution of radioactivity, stomach [1]: 1.15 ± 0.21 % injected dose per organ | Biodistribution of radioactivity, thyroid [1]: 0.12 ± 0.03 % injected dose per organ | Biodistribution of radioactivity, brain (carrier-added, SA ≈ 60 GBq/μmol, 2 min, listed as [125I]7a): 5.39 ± 0.36 % injected dose per gram | Biodistribution of radioactivity, blood [2]: 2.31 ± 0.22 % injected dose per gram | Biodistribution of radioactivity, brain [2]: 3.51 ± 0.36 % injected dose per gram | Biodistribution of radioactivity, heart [2]: 2.32 ± 0.15 % injected dose per gram | Biodistribution of radioactivity, intestine [2]: 8.51 ± 0.48 % injected dose per organ | Biodistribution of radioactivity, kidney [2]: 10.01 ± 1.43 % injected dose per gram | Biodistribution of radioactivity, liver [2]: 11.30 ± 0.58 % injected dose per gram | Biodistribution of radioactivity, lung [2]: 6.50 ± 0.69 % injected dose per gram | Biodistribution of radioactivity, muscle [2]: 1.42 ± 0.20 % injected dose per gram | Biodistribution of radioactivity, pancreas [2]: 2.79 ± 0.35 % injected dose per gram | Biodistribution of radioactivity, spleen [2]: 1.53 ± 0.23 % injected dose per gram | Biodistribution of radioactivity, stomach [2]: 0.74 ± 0.09 % injected dose per organ | Biodistribution of radioactivity, thyroid [2]: 0.11 ± 0.01 % injected dose per organ | Biodistribution of radioactivity, blood [3]: 1.39 ± 0.15 % injected dose per gram | Biodistribution of radioactivity, brain [3]: 0.97 ± 0.11 % injected dose per gram | Biodistribution of radioactivity, heart [3]: 0.96 ± 0.13 % injected dose per gram | Biodistribution of radioactivity, intestine [3]: 18.87 ± 2.27 % injected dose per organ | Biodistribution of radioactivity, kidney [3]: 6.25 ± 1.23 % injected dose per gram | Biodistribution of radioactivity, liver [3]: 6.29 ± 0.22 % injected dose per gram | Biodistribution of radioactivity, lung [3]: 4.30 ± 0.58 % injected dose per gram | Biodistribution of radioactivity, muscle [3]: 0.95 ± 0.08 % injected dose per gram | Biodistribution of radioactivity, pancreas [3]: 1.06 ± 0.16 % injected dose per gram | Biodistribution of radioactivity, spleen [3]: 0.62 ± 0.03 % injected dose per gram | Biodistribution of radioactivity, stomach [3]: 1.67 ± 0.33 % injected dose per organ | Biodistribution of radioactivity, thyroid [3]: 0.12 ± 0.04 % injected dose per organ | Biodistribution of radioactivity, blood [4]: 0.83 ± 0.06 % injected dose per gram | Biodistribution of radioactivity, brain [4]: 0.37 % injected dose per gram | Biodistribution of radioactivity, heart [4]: 0.55 ± 0.10 % injected dose per gram | Biodistribution of radioactivity, intestine [4]: 25.30 ± 3.94 % injected dose per organ | Biodistribution of radioactivity, kidney [4]: 3.40 ± 0.48 % injected dose per gram | Biodistribution of radioactivity, liver [4]: 3.31 ± 0.37 % injected dose per gram | Biodistribution of radioactivity, lung [4]: 1.91 ± 0.29 % injected dose per gram | Biodistribution of radioactivity, muscle [4]: 0.72 ± 0.20 % injected dose per gram | Biodistribution of radioactivity, pancreas [4]: 0.57 ± 0.05 % injected dose per gram | Biodistribution of radioactivity, spleen [4]: 0.36 ± 0.03 % injected dose per gram | Biodistribution of radioactivity, stomach [4]: 1.04 ± 0.30 % injected dose per organ | Biodistribution of radioactivity, thyroid [4]: 0.22 ± 0.05 % injected dose per organ | Biodistribution of radioactivity, brain (carrier-added, SA ≈ 60 GBq/μmol, 60 min, listed as [125I]7a): 0.37 ± 0.05 % injected dose per gram | brain2 min/brain60 min ratio: 12.8 | Biodistribution of radioactivity, blood (2 min): 5.03 ± 0.20 % injected dose per gram | Biodistribution of radioactivity, brain (2 min): > 5 % injected dose per gram and 7.04 % injected dose per gram | Biodistribution of radioactivity, heart (2 min): 9.70 ± 2.25 % injected dose per gram | Biodistribution of radioactivity, intestine (2 min): 6.46 ± 0.79 % injected dose per organ | Biodistribution of radioactivity, kidney (2 min): 12.03 ± 1.20 % injected dose per gram | Biodistribution of radioactivity, liver (2 min): 22.45 ± 3.88 % injected dose per gram | Biodistribution of radioactivity, lung (2 min): 10.78 ± 2.33 % injected dose per gram | Biodistribution of radioactivity, muscle (2 min): 3.72 ± 0.51 % injected dose per gram | Biodistribution of radioactivity, pancreas (2 min): 8.15 ± 1.09 % injected dose per gram | Biodistribution of radioactivity, spleen (2 min): 3.86 ± 0.21 % injected dose per gram | Biodistribution of radioactivity, stomach (2 min): 1.32 ± 0.21 % injected dose per organ | Biodistribution of radioactivity, thyroid (2 min): 0.12 ± 0.02 % injected dose per organ | Biodistribution of radioactivity, brain (2 min, listed as [125I]7a): 7.04 ± 0.89 % injected dose per gram | Biodistribution of radioactivity, blood (10 min): 3.03 ± 0.48 % injected dose per gram | Biodistribution of radioactivity, brain (10 min): 2.73 ± 0.25 % injected dose per gram | Biodistribution of radioactivity, heart (10 min): 2.01 ± 0.14 % injected dose per gram | Biodistribution of radioactivity, intestine (10 min): 17.21 ± 2.33 % injected dose per organ | Biodistribution of radioactivity, kidney (10 min): 9.53 ± 1.58 % injected dose per gram | Biodistribution of radioactivity, liver (10 min): 14.43 ± 2.37 % injected dose per gram | Biodistribution of radioactivity, lung (10 min): 7.44 ± 1.59 % injected dose per gram | Biodistribution of radioactivity, muscle (10 min): 1.28 ± 0.11 % injected dose per gram | Biodistribution of radioactivity, pancreas (10 min): 2.07 ± 0.30 % injected dose per gram | Biodistribution of radioactivity, spleen (10 min): 1.32 ± 0.13 % injected dose per gram | Biodistribution of radioactivity, stomach (10 min): 1.08 ± 0.24 % injected dose per organ | Biodistribution of radioactivity, thyroid (10 min): 0.09 ± 0.02 % injected dose per organ | Biodistribution of radioactivity, blood (30 min): 2.17 ± 0.31 % injected dose per gram | Biodistribution of radioactivity, brain (30 min): 1.05 ± 0.22 % injected dose per gram | Biodistribution of radioactivity, heart (30 min): 1.65 ± 0.43 % injected dose per gram | Biodistribution of radioactivity, intestine (30 min): 19.88 ± 4.22 % injected dose per organ | Biodistribution of radioactivity, kidney (30 min): 6.71 ± 0.78 % injected dose per gram | Biodistribution of radioactivity, liver (30 min): 12.35 ± 2.83 % injected dose per gram | Biodistribution of radioactivity, lung (30 min): 4.25 ± 0.41 % injected dose per gram | Biodistribution of radioactivity, muscle (30 min): 1.29 ± 0.31 % injected dose per gram | Biodistribution of radioactivity, pancreas (30 min): 2.61 ± 0.59 % injected dose per gram | Biodistribution of radioactivity, spleen (30 min): 1.26 ± 0.20 % injected dose per gram | Biodistribution of radioactivity, stomach (30 min): 4.38 ± 1.00 % injected dose per organ | Biodistribution of radioactivity, thyroid (30 min): 0.12 ± 0.01 % injected dose per organ | Biodistribution of radioactivity, blood (60 min): 1.96 ± 0.31 % injected dose per gram | Biodistribution of radioactivity, brain (60 min): 0.55 % injected dose per gram | Biodistribution of radioactivity, heart (60 min): 1.00 ± 0.18 % injected dose per gram | Biodistribution of radioactivity, intestine (60 min): 20.21 ± 7.78 % injected dose per organ | Biodistribution of radioactivity, kidney (60 min): 6.56 ± 1.10 % injected dose per gram | Biodistribution of radioactivity, liver (60 min): 5.15 ± 1.09 % injected dose per gram | Biodistribution of radioactivity, lung (60 min): 4.04 ± 1.63 % injected dose per gram | Biodistribution of radioactivity, muscle (60 min): 1.36 ± 0.25 % injected dose per gram | Biodistribution of radioactivity, pancreas (60 min): 1.97 ± 0.48 % injected dose per gram | Biodistribution of radioactivity, spleen (60 min): 1.14 ± 0.56 % injected dose per gram | Biodistribution of radioactivity, stomach (60 min): 2.44 ± 0.97 % injected dose per organ | Biodistribution of radioactivity, thyroid (60 min): 0.16 ± 0.03 % injected dose per organ | Biodistribution of radioactivity, brain (60 min, listed as [125I]7a): 0.55 ± 0.11 % injected dose per gram
